In ChEMBL document CHEMBL5113526, “Design, Synthesis, and Biological Evaluation of Androgen Receptor Degrading and Antagonizing Bifunctional Steroidal Analogs for the Treatment of Advanced Prostate Cancer” (J Med Chem, 2022):
Activity calls are given as the source filed them. No cut-off for these calls is given here.

What was measured:
[1] = test system: LNCaP; assay: Antiproliferative activity against human LNCAP cells assessed as reduction in cell viability at 10 uM measured after 6 days by CellTiterGlo assay relative to control; type: functional; conditions: time 6 day; for inhibition at 10 µM: Homo sapiens, LNCaP
[2] = target: T1, Steroid 17-alpha-hydroxylase/17,20 lyase (Homo sapiens, UniProt P05093); assay: Inhibition of human recombinant CYP17A1 incubated for 5 mins in presence of NADPH by LC-MS/MS analysis; type: ADME
T1 sequence (P05093 whole entry): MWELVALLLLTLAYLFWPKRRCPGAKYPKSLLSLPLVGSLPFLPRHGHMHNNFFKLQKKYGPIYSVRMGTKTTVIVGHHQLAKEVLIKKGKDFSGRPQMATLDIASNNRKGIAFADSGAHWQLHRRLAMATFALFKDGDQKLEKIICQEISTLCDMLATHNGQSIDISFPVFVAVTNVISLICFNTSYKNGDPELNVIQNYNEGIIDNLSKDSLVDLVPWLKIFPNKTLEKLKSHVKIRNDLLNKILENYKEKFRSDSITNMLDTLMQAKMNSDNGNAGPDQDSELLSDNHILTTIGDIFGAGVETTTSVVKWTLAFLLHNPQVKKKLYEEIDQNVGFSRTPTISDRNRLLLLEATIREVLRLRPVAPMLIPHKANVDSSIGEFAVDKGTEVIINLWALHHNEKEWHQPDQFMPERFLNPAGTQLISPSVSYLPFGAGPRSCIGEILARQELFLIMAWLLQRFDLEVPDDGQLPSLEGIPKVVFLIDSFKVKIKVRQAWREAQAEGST

[3] = target: T2, Androgen receptor (Homo sapiens, UniProt P10275); assay: Antagonist activity at DHT-induced Androgen receptor transcriptional activity in human HEK293 cells measured after 24 hrs by Steady-Glo reagent based assay; type: cell-based
T2 sequence (P10275 whole entry): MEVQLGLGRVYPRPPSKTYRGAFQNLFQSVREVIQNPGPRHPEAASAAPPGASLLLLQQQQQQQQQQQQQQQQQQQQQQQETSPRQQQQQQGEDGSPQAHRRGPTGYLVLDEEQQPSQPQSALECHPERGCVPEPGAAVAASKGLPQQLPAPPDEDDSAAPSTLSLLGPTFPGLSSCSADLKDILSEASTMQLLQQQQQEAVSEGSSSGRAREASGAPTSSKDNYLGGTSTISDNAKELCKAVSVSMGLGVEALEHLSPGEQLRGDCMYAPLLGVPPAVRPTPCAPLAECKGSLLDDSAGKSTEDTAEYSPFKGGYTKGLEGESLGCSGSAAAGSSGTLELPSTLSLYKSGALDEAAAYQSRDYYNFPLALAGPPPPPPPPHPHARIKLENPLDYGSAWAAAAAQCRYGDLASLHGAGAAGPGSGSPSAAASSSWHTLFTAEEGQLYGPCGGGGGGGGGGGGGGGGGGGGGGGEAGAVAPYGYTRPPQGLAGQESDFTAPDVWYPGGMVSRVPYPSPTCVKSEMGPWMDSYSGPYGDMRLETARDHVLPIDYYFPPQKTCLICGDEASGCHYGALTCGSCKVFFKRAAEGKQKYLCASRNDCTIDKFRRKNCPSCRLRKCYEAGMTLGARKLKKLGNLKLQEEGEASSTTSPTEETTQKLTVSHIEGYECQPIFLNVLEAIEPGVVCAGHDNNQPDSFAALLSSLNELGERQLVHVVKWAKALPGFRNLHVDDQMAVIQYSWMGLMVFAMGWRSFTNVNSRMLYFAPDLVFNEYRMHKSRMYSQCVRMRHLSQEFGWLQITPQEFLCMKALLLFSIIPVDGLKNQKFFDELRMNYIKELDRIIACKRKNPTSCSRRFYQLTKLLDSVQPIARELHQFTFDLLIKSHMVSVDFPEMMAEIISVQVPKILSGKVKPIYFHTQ

[4] = target: T2, Androgen receptor; assay: Induction of AR degradation in human LNCap cells incubated for 24 hrs by sandwich ELISA analysis; type: cell-based
[5] = Terminal half life in Sprague-Dawley rat at 10 mg/kg, po measured up to 24 hrs by LC-MS/MS analysis; type: ADME, organism-based; conditions: in vivo, read-out: beta t1/2 (converted)
[6] = Tmax in Sprague-Dawley rat at 10 mg/kg, po measured up to 24 hrs by LC-MS/MS analysis; type: ADME, organism-based; conditions: in vivo
[7] = Cmax in Sprague-Dawley rat at 10 mg/kg, po measured up to 24 hrs by LC-MS/MS analysis; type: ADME, organism-based; design: dose 10 mg/kg, time < 24 hrs, route po; conditions: in vivo
[8] = AUC (0 to t) in Sprague-Dawley rat at 10 mg/kg, po measured up to 24 hrs by LC-MS/MS analysis; type: ADME, organism-based; design: time < 24 hrs, dose 10 mg/kg, route po; conditions: in vivo
[9] = target: Voltage-gated inwardly rectifying potassium channel KCNH2 (Homo sapiens, UniProt Q12809); assay: Inhibition of hERG potassium channel at -80 mV holding potential incubated for 3 mins by automated patch clamp method; type: toxicity
[10] = target: T3, Androgen receptor (Homo sapiens) (UniProt P10275); assay: Induction of AR degradation in human LNCap cells at 20 uM measured after 24 hrs by Western blot analysis; type: cell-based
T3 sequence (whole entry): T2 sequence (P10275 whole entry)

[11] = target: T3, Androgen receptor (Homo sapiens); assay: Induction of AR degradation in human LNCap cells at 20 uM by Western blot analysis; type: cell-based; conditions: time 2-24 hrs, TDE = time-dependent effect
[12] = test system: CWR22R; assay: Antiproliferative activity against human 22Rv1 cells expressing AR-v7 assessed as reduction in cell viability measured after 6 days by CTG assay; type: functional, cell-based
[13] = test system: CWR22R; assay: Antiproliferative activity against human 22Rv1 cells expressing AR-v7 assessed as reduction in cell viability at 30 uM measured after 6 days by CTG assay; type: functional; conditions: time 6 day
[14] = test system: Androgen receptor (Homo sapiens), P10275 [UNDEFINED MUTATION]; assay: Induction of AR-v7 degradation in human 22Rv1 cells incubated for 24 hrs by Western blot analysis; type: cell-based; conditions: dose 1-20 µM, DDE = dose-dependent effect
[15] = Antagonist activity at androgen receptor W741L mutant (unknown origin) expressed in HEK293 cells incubated for 24 hrs by luciferase reporter assay; type: cell-based; conditions: Homo sapiens, HEK293, 24 h
[16] = target: Androgen receptor (Homo sapiens, UniProt P10275, T878A); assay: Antagonist activity at androgen receptor T877A mutant (unknown origin) expressed in HEK293 cells incubated for 24 hrs by luciferase reporter assay; type: cell-based
[17] = target: Androgen receptor (Homo sapiens, UniProt P10275, F877L); assay: Antagonist activity at androgen receptor F876L mutant (unknown origin) expressed in HEK293 cells incubated for 24 hrs by luciferase reporter assay; type: cell-based
[18] = Inhibition of TP-stimulated andogen-sensitive seminal vesicle growth in castrated Sprague-Dawley rat at 20 mg/kg, po administered for 10 days and measured after 24 hrs last post dose by hershberger assay relative to control; type: functional
[19] = Inhibition of TP-stimulated andogen-sensitive ventral prostate growth in castrated Sprague-Dawley rat at 20 mg/kg, po administered for 10 days and measured after 24 hrs last post dose by hershberger assay relative to control; type: functional; conditions: time 10 day
[20] = test system: LNCaP C4-2B; assay: Antitumor activity against enzalutamide-resisitant human C4-2B cells xenografted in castrated BALB/c nude mouse assessed as change in tumor volume at 30 mg/kg, po qd measured after 4 weeks; type: functional
[21] = Toxicity in castrated BALB/c nude mouse xenografted with enzalutamide-resisitant human C4-2B cells assessed as body weight loss at 30 mg/kg, po qd measured after 28 days; type: organism-based, LNCaP C4-2B; conditions: in vivo, 672 h, time 28 day
[22] = test system: LNCaP; assay: cells; conditions: Homo sapiens
Description: Antiproliferative activity against human LNCAP cells assessed as reduction in cell viability measured after 6 days by CellTiter-Glo assay

Sequence of Voltage-gated inwardly rectifying potassium channel KCNH2 (Q12809 whole entry): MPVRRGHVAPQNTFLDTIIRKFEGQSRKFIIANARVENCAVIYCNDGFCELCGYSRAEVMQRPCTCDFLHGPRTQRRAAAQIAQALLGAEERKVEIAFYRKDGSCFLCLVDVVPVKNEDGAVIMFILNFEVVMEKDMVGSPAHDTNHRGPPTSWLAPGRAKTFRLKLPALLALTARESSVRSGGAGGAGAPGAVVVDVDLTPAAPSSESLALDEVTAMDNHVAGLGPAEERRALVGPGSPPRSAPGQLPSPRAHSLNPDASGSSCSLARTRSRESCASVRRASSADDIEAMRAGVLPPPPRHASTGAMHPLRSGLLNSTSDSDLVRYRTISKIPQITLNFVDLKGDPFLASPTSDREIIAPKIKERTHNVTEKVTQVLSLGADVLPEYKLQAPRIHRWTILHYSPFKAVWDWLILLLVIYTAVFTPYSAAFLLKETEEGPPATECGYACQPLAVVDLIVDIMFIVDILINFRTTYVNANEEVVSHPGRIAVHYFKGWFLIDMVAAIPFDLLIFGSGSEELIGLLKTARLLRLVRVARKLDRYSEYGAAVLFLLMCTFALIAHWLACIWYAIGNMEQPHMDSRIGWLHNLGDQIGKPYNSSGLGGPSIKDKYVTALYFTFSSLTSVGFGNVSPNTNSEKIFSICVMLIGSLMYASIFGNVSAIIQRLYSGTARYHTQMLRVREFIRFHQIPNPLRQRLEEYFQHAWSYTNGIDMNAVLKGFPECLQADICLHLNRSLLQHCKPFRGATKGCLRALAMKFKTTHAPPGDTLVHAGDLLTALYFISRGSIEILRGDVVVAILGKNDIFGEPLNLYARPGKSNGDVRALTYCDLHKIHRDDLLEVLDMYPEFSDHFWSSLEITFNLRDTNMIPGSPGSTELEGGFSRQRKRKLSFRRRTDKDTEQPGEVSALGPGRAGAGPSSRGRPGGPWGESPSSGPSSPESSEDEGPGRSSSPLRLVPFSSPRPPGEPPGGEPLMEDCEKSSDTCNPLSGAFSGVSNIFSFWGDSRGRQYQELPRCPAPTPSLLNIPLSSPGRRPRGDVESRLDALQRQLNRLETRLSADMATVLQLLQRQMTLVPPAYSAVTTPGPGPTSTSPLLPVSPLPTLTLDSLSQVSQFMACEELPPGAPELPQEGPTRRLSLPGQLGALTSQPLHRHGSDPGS
Sequence of Androgen receptor (Homo sapiens, UniProt P10275, T878A) (P10275 whole entry T878A): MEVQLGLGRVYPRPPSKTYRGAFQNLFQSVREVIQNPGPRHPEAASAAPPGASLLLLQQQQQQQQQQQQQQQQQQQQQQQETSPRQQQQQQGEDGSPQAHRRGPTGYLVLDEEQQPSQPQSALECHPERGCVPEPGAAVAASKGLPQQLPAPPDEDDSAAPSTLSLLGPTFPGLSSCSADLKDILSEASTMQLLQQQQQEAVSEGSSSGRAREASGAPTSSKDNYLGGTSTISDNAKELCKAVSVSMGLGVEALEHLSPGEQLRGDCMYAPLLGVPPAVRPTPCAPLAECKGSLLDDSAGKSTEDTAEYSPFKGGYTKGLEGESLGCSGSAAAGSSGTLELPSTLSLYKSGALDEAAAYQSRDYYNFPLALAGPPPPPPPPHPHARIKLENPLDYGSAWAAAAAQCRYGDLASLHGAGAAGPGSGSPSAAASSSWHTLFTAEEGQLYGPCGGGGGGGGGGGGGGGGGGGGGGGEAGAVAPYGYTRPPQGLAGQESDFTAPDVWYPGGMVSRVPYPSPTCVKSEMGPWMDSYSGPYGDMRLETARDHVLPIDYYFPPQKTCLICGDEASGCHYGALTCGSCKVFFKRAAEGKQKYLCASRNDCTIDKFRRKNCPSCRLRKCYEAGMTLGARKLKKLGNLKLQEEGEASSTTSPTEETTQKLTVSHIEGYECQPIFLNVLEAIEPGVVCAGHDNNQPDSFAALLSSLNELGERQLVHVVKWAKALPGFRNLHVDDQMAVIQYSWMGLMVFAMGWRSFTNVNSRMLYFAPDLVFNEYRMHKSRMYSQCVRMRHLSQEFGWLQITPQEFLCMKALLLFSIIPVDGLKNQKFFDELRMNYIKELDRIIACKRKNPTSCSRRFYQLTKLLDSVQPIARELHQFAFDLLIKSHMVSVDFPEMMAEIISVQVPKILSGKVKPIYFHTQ
Sequence of Androgen receptor (Homo sapiens, UniProt P10275, F877L) (P10275 whole entry F877L): as the sequence (P10275 whole entry T878A) above, with F877L, A878T counted along it

| SMILES | inhibition at 10 µM [1] [%] | IC50 [2] [µM] | IC50 [3] [µM] | DC50 [4] [µM] | half-life [5] [h] | Tmax [6] [h] | Cmax [7] [ng/mL] | AUC(0-t) at 24 h [8] [ng·h/mL] | IC50 [9] [µM] | IC50 [22] [µM] | further results |
| --- | --- | --- | --- | --- | --- | --- | --- | --- | --- | --- | --- |
| Cc1cn(C2=CC[C@H]3[C@@H]4CC=C5C[C@@H](NC(=O)c6ccncc6)CC[C@]5(C)[C@H]4CC[C@]23C)cn1 | 99.3 | 2.59 | 0.247 | 2.84 | 2.8 | 2.17 | 2670 | 24800 | 6.47 | 0.205 | Activity [10]: Active; Activity [11]: Tde; IC50 [12]: 0.59 µM; inhibition at 30 µM [13]: 37%; Activity [14]: Dde; IC50 [15]: 0.49 µM; IC50 [16]: 0.209 µM; IC50 [17]: 0.268 µM; inhibition in vivo at 20 mg/kg ([18]; Rattus norvegicus, Sprague-Dawley, 576 h): 62%; inhibition in vivo at 20 mg/kg ([19]; Rattus norvegicus, Sprague-Dawley, 240 h): 66%; T/C [20]: -14%; Activity [21]: Non-Toxic |
| CNC(=O)c1ccc(N2C(=S)N(c3ccc(C#N)c(C(F)(F)F)c3)C(=O)C2(C)C)cc1F [ENZALUTAMIDE] |  |  |  |  |  |  |  |  |  |  | inhibition (INH) [1]: 68.83%; inhibition (INH) [18]: 67%; inhibition (INH) [19]: 67% |
| C[C@]12CC[C@H](NC(=O)c3ccncc3)CC1=CC[C@@H]1[C@@H]2CC[C@]2(C)C(n3ccnc3)=CC[C@@H]12 | 97 |  | 0.511 |  | 10 | 2 | 4500 | 28800 | 4.99 | 0.317 |  |
| Cc1cn(C2=CC[C@H]3[C@@H]4CC=C5C[C@@H](NC(=O)c6ccnnc6)CC[C@]5(C)[C@H]4CC[C@]23C)cn1 | 97 | > 3 | 0.244 | 2.08 | 3.58 | 4.67 | 802 | 5620 |  | 0.466 |  |
